Experiments:
Format in all cases: physicochemical
[1] = Crystal form stability of Lubiprostone crystal V in the third solvent used for seeded crystallization
[2] = Crystal form transformation of Lubiprostone crystal V stirred in isopropyl acetate/heptane, XRPD; settings: stirred in isopropyl acetate (0.16 ml)/heptane (0.84 ml) at 20° C., within two hours
Experimental: X-ray Powder Diffraction (XRPD) Analysis: The XRPD patterns were collected on a Bruker D2 PHASER diffractometer with fixed divergence slits and 1D LYNXEYE detector. The samples (ca. 100 mg) were flatly placed on a sample holder. The prepared samples were analyzed over a 2θ range from 5° to 50° with step size of 0.02 degrees and step time of 1 second using CuKα radiation at a power of 10 mA and 30 kV. The CuKβ radiation was removed by a divergent beam nickel filter.
Lubiprostone crystal V (0.20 g, from Example 9) was added to a mixture of isopropyl acetate (0.16 ml) and heptane (0.84 ml)(i.e., the solvent system for crystallization of US 2010/056808), and the mixture was stirred at 20° C. for 2 hours. The resulting suspension was filtered and rinsed, and then dried under high vacuum at room temperature to give Lubiprostone crystal I. The XRPD results are shown in FIGS. 12(a) and 12(b).
Therefore, the Lubiprostone crystal V is a novel crystalline form of Lubiprostone, and the crystalline form shown in FIG. 2 found in the unit cell of Lubiprostone crystal II by optical microscope is an enantiomorph of Lubiprostone, rather than Lubiprostone crystal V.

[3] = Storage stability of Lubiprostone crystal V (crystalline form and degradation to impurity A); settings: six months of storage at about −20° C.

CCCCC(F)(F)[C@@]1(O)CC[C@H]2[C@@H](CC(=O)[C@@H]2CCCCCCC(=O)O)O1 [Lubiprostone crystal V, Lubiprostone]
conversion of crystalline form to Lubiprostone crystal I ([1]; esters such as isopropyl acetate as third solvent): rapidly converted | stability of crystal form against conversion to Lubiprostone crystal I ([1]; o-xylene, m-xylene, ethyl ether, isopropyl ether or methyl tert-butyl ether as third solvent): very stable | conversion of crystalline form to Lubiprostone crystal I (XRPD) [2]: completely converted | stability on storage (other crystalline forms, degraded products of impurity A) [3]: good stability

Source: patent US10253011B1, “Lubiprostone crystals and methods for preparing the same” (CHIROGATE INTERNATIONAL INC., priority 2018, dated 2019)
